According to patent publication US20250352590A1, “Functional postbiotic composition for homeostatic vaginal care” (Seed Health Inc., priority 2024, published 2025):

Legend:
[1] = test system: EpiVaginal (VEC-100) 3-D tissues; assay: Barrier integrity by transepithelial electrical resistance (TEER) in EpiVaginal tissues; assay type: cell-based; conditions: 24 hr exposure; for TEER avg. (% of VC): tissues in triplicate, normalized to average TEER of vehicle control VC
Method: (§1) EpiVaginal (VEC-100) 3-D tissues, produced by MatTek Corporation, were used to evaluate eight test conditions plus a positive control known to have negative effects on tissue viability and barrier function (nonoxynol-9); the conditions tested are given in Table 3 below. Barrier integrity was measured at baseline, and tissues were treated in triplicate with test articles for 24 hours. Three tissues were left untreated to serve as negative control (NC); three tissues were treated with 4% nonoxynol-9 to serve as positive control (PC); and three tissues were dosed with media to serve as vehicle control (VC). At the end of 24 hr exposure to the test articles, barrier integrity was measured using transepithelial electrical resistance (TEER) and two tissues were used to assess tissue viability with the MTT assay. From each treatment group, one tissue was fixed in 10% formalin and processed for H&E staining for histological analysis.
Throughout this Example and Example 8 below, “VS-01” refers to a consortium of three Lactobacillus crispatus strains: LUCA011 (ATCC Accession Deposit No. PTA-127214) at a concentration of 3.70·10^10 CFU/g, LUCA009 (ATCC Accession Deposit No. PTA-127213) at a concentration of 8.60·10^9 CFU/g, and LUCA103 (ATCC Accession Deposit No. PTA-127218) at a concentration of 2.50·10^10 CFU/g. A stock of 10^6 CFU/mL of the combined strains was used for testing. A comparator strain, L. crispatus ATCC 33197, was sourced from the American Type Culture Collection, and it was determined by bioinformatic analysis that the genome of this strain had between 99.0% and 99.2% average nucleotide identity (ANI) with each of the three VS-01 strains.
The concentration of VS-01 most relevant to in vivo exposure in the VEC-100 model (10^6 CFU/mL) was determined using two different approaches: (1) Comparison of the exposure per unit area of vaginal surface area between VS-01 in vivo and VS-01 in the VEC-100 model. As known from the literature, the average surface area of the human vagina ranges from 65.73 to 107.07 cm^2 with a mean of 87.46 cm^2 and a standard deviation of 7.80 cm^2. If an 850 mg tablet as described in Example 3 instantaneously dissolved, the estimated coverage would be 9.7 mg/cm^2 (850 mg/87.46 cm^2). This most closely corresponds to a 1:100 dilution of the tablet and can be considered an upper bound, given that the tablet dissolves slowly over a 24-hour period. (2)
Comparison of the ratio of L. crispatus cells to vaginal epithelial cells in vivo and in the VEC-100 model. […] The Mattek model contains between about 350,000 and about 500,000 cells at a depth of three to five layers. If 100,000 epithelial cells are exposed at the surface, exposure to 10^6 bacterial cells produces a reasonable estimate of a 10:1 bacterial cell/epithelial cell ratio.
An estimate of the concentration of D-lactate most relevant to in vivo exposure was obtained considering tablet dissolution kinetics. Tablets as described in Example 3 are slow-release formulations, dissolving over the course of […]. The volume of cervicovaginal fluid (CVF) present in the vagina is variable, ranging from about 1 mL to about 4 mL, with a discharge rate of about 2 mL to about 5 mL over 24 hours; thus, the dissolution rate of a tablet as described in Example 3 would be about 71 mg/hour. D-lactate concentrations of tablets as described in Example 3 range from about 34 mg/tablet to about 44 mg/tablet. Estimating that 8.4% of an 850 mg tablet dissolves per hour (71 mg/hour divided by 850 mg/tablet) gives an estimated in vivo D-lactate concentration range of 31.7 mM to 40.44 mM D-lactate. Therefore, testing 10 mM and 100 mM D-lactate in this Example covers the physiological range of estimated exposure given the expected variability in the exact concentration of D-lactate per tablet. […]

[2] = test system: EpiVaginal (VEC-100) 3-D tissues; assay: Tissue viability by MTT assay in EpiVaginal tissues; assay type: cell-based; conditions: 24 hr exposure
Method: as §1

Row | Compound | TEER avg. (% of VC) [1] | Barrier integrity / TEER, result in words [1] | TEER vs NC ([1]; relative to untreated negative control NC) [%] | TEER vs VC ([1]; relative to vehicle control VC) [%] | Cytotoxicity / tissue viability (MTT), result in words [2]
1 | C[C@@H](O)C(=O)O [TA7, D-lactate] | 114.8 % of VC | – | – | – | –
2 | nonoxynol-9 [PC] | 0.6 % of VC | barrier disruption | 0.2 | 0.6 | severe cytotoxicity
3 | C[C@@H](O)C(=O)O [TA6, D-lactate] | 128.4 % of VC | – | – | – | –
4 | C[C@@H](O)C(=O)O [D-lactate] | – | did not result in significant improvements in TEER over VC | – | – | –
